Data as given in patent US4647564A, “Inotropic agents” (Eli Lilly and Company, priority 1986, dated 1987).

Key:
[1] = tested on: Ventricular contractility in the conscious dog; assay: Ventricular contractility in the conscious dog (oral); type: in vivo; details: Canis lupus familiaris, oral (gelatin capsules), by interpolation, read-out: ED50 (dose required to produce a peak increase in contractility of 50%)
Text: (§1) The compounds of Formula I are particularly useful as inotropic agents due to their potency, long action of effect, and oral efficacy and are therefore useful in the treatment and prevention of heart failure. For example, the compounds of this invention were examined as to their pharmacodynamic effects on the following test systems. For comparison, 1,3-dihydro-5-(1,4,5,6-tetrahydro-6-oxo-3-pyridazinyl)-2H-indol-2-one (Compound A) and 4,4-dimethyl-1,2,3,4-tetrahydro-6-(1,4,5,6-tetrahydro-6-oxo-3-pyridazinyl)quinolin-2-one (Compound B) as taught in U.S. Pat. No. 4,258,185 (although named somewhat differently), were also tested.
Mongrel dogs of either sex weighing 15-36 kg were chronically instrumented to monitor peak systolic pressure, heart rate, left ventricular pressure and its first derivative, LVdP/dt at 60 mm of mercury. Under halothane-nitrous oxide anesthesia, a precalibrated Konigsberg P22 Pressure Transducer was implanted into the left ventricle through a stab wound at the apex. Following recovery from surgery, a minimum of two weeks was allowed to train the dogs to lie quietly for four-hour periods. This conditioning was necessary to obtain stable, reproducible results from day to day. Dogs were fasted eighteen hours before an experiment. Gross behavioral observations of animals were made throughout each study. Compounds or placebo (lactose) were administered in gelatin capsules. The maximum effects on contractility at various dose levels were determined and plotted and the dose required to produce a 50-percent increase in contractility (ED50) was determined by interpolation.

[2] = tested on: Ventricular contractility in the anesthetized dog; assay: Ventricular contractility in the anesthetized dog (i.v.); type: in vivo; details: Canis lupus familiaris, iv, i.v. bolus, by interpolation, read-out: ED50 (dose required to produce a peak increase in contractility of 50%)
Text: as §1
Mongrel dogs of either sex ranging in weight for 7 to 14 kg were used. Anesthesia was induced with sodium pentobarbital (30 mg/kg, i.v.) and maintained with supplemental doses as required. A positive-pressure pump was used to ventilate the dogs through an endotracheal tube (18 strokes/minute, 20 ml/kg stroke^-1), and a heating pad kept the body temperature at 37°-38° C.
Femoral arterial blood pressure was measured through a polyethylene catheter filled with heparin solution (16 units/ml) and connected to a Statham pressure transducer. A strain-gauge arch sutured to the right ventricle of the heart measured cardiac contractility. Tension on the gauge was adjusted to 50 g and the gain of the recorder (Beckman dynograph) was set so that 50 g caused a 10-mm pen deflection. Cardiac contractile tension was measured as millimeters of pen deflection or grams of tension. The test compounds were administered as an i.v. bolus (2-5 ml) in a normal saline vehicle following a 30-45 minute equilibrium period. […] The maximum effects on contractility at various dose levels were determined and plotted and the dose required to produce a 50 % increase in contractility (ED50) was determined by interpolation.

Cat papillary muscles = assay: Positive inotropic activity in isolated cat papillary muscles; type: cell-based; details: Felis catus, control = 100 percent, average of 2 to 8 muscles, read-out: Contractility of papillary muscle, peak response; for activity at 100 µM: 10^-4 M; for activity at 10 µM: 10^-5 M
Text: as §1
Cats of either sex were anesthetized with Metofane (1,1-difluoro-2,2-dichloroethyl methyl ether, Pittman-Moore). Their hearts were immediately removed and the papillary muscles dissected and suspended in individual organ baths. A platinum hook secured one end of the muscle to an electrode mounted in the bottom of the bath, and a silk thread attached the tendon to a Statham isometric transducer. The baths contained Krebs-Henseleit solution (36° C., bubbled with 95 percent oxygen--5 percent carbon dioxide) of the following millimolar composition: NaCl, 118; KCl, 4.5; CaCl2, 2.5; KH2 PO4, 1.1; MgSO4, 1.2; NaHCO3, 25; and glucose, 11.
A base-line tension of 1.5 g was applied to each muscle. Square-wave pulses (5.0 msec. in duration, three times threshold voltage) delivered through the hook electrode and a second electrode positioned near the top of the muscle evoked 12 contractions/minute, which were recorded on a Grass polygraph. After the muscles had equilibrated for 60 minutes, the recorder gain was adjusted so that the pen deflected 10 mm. The test compound was introduced in a solution of normal saline in an amount to bring the final concentration of the compound to 10^-5 or 10^-4 molar. Increases in contractility were tabulated as millimeters of pen deflection in excess of the baseline value. In each experiment the maximum contractility was measured. Test results are summarized in Table I and are expressed as percent of control (control=100 percent). Values are the average of results from 2 to 8 muscles.

| Compound | ED50 [1] [mg/kg] | ED50 [2] [mg/kg] | activity at 100 µM (Cat papillary muscles) [%] | activity at 10 µM (Cat papillary muscles) [%] |
| --- | --- | --- | --- | --- |
| CN1C(=O)C(C)(C)c2cc(C3=NNC(=O)CC3)ccc21 [Example 2, 1,3-Dihydro-1,3,3-trimethyl-5-(1,4,5,6-tetrahydro-6-oxo-3-pyridazinyl)-2H-indol-2-one] | > 0.4 | 0.01 | – | – |
| CC1CC(=O)NN=C1c1ccc2c(c1)C(C)(C)C(=O)N2C (stereo not shown) [Example 3, 1,3-Dihydro-1,3,3-trimethyl-5-(1,4,5,6-tetrahydro-4-methyl-6-oxo-3-pyridazinyl)-2H-indol-2-one] | – | 0.005 | – | – |
| CC1C(=O)Nc2ccc(C3=NNC(=O)CC3)cc21 (stereo not shown) [Example 8, 1,3-Dihydro-3-methyl-5-(1,4,5,6-tetrahydro-6-oxo-3-pyridazinyl)-2H-indol-2-one] | 0.025 | 0.0063 | – | – |
| CC1CC(=O)NN=C1c1ccc2c(c1)C(C)(C)C(=O)N2 (stereo not shown) [Example 7, 1,3-Dihydro-3,3-dimethyl-5-(1,4,5,6-tetrahydro-4-methyl-6-oxo-3-pyridazinyl)-2H-indol-2-one] | 0.05 | 0.0025 | – | – |
| O=C1CCC(c2ccc3c(c2)CC(=O)N3)=NN1 [Compound A, 1,3-dihydro-5-(1,4,5,6-tetrahydro-6-oxo-3-pyridazinyl)-2H-indol-2-one, reference compound] | 0.5 | 0.01 | 152 | 147 |
| Cc1cc2c(cc1C1=NNC(=O)CC1)C(C)(C)C(=O)N2 [Example 5, 1,3-Dihydro-3,3,6-trimethyl-5-(1,4,5,6-tetrahydro-6-oxo-3-pyridazinyl)-2H-indol-2-one] | – | 0.02 | – | – |
| CC1(C)CC(=O)Nc2ccc(C3=NNC(=O)CC3)cc21 [Compound B, 4,4-dimethyl-1,2,3,4-tetrahydro-6-(1,4,5,6-tetrahydro-6-oxo-3-pyridazinyl)quinolin-2-one, reference compound] | > 0.5 | 0.048 | 169 | 178 |
| CC1(C)C(=O)Nc2ccc(C3=NNC(=O)CC3)cc21 [Example 1, 1,3-Dihydro-3,3-dimethyl-5-(1,4,5,6-tetrahydro-6-oxo-3-pyridazinyl)-2H-indol-2-one] | 0.025 | 0.005 | 208 | 202 |
| Cc1cc(C2=NNC(=O)CC2)cc2c1NC(=O)C2(C)C [Example 4, 1,3-Dihydro-3,3,7-trimethyl-5-(1,4,5,6-tetrahydro-6-oxo-3-pyridazinyl)-2H-indol-2-one] | – | 0.0085 | – | – |
| CC1CC(c2ccc3c(c2)C(C)(C)C(=O)N3)=NNC1=O (stereo not shown) [Example 6, 1,3-Dihydro-3,3-dimethyl-5-(1,4,5,6-tetrahydro-5-methyl-6-oxo-3-pyridazinyl)-2H-indol-2-one] | – | 0.021 | – | – |
